Measured values reported in PubChem BioAssay AID200 (DTP/NCI, 2004).
Several values for one entry are separate records, joined by “and”; a condition that tells them apart may be missing. Equal values may be shown once. Inconclusive results and toxic doses are left out.

Tested on: B6C3F1 mice, B16 melanoma ip, median survival T/C
Experiment: NCI In Vivo Anticancer Drug Screen. Data for tumor model B16 Melanoma (intraperitoneal) in B6C3F1 mice
Conditions: endpoint: median survival time, higher = longer survival
In short: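 Antitumor effect was judged in mice with transplanted tumors by dividing the treated group's survival measure by that of vehicle controls.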

[1] = dose: 1.56 mg/kg/injection, schedule: Q01DX009 (ip), vehicle: saline with Tween-80
[2] = dose: 3.13 mg/kg/injection, schedule: Q01DX009 (ip), vehicle: saline with Tween-80
[3] = dose: 6.25 mg/kg/injection, schedule: Q01DX009 (ip), vehicle: saline with Tween-80
[4] = dose: 12.5 mg/kg/injection, schedule: Q01DX009 (ip), vehicle: Klucel (hydroxypropylcellulose) (HPC)
[5] = dose: 25.0 mg/kg/injection, schedule: Q01DX009 (ip), vehicle: Klucel (hydroxypropylcellulose) (HPC)
[6] = dose: 50.0 mg/kg/injection, schedule: Q01DX009 (ip), vehicle: Klucel (hydroxypropylcellulose) (HPC)
[7] = dose: 200.0 mg/kg/injection, schedule: Q01DX009 (ip), vehicle: Klucel (hydroxypropylcellulose) (HPC)
[8] = dose: 100.0 mg/kg/injection, schedule: Q01DX009 (ip), vehicle: Klucel (hydroxypropylcellulose) (HPC)
[9] = dose: 400.0 mg/kg/injection, schedule: Q01DX009 (ip), vehicle: Klucel (hydroxypropylcellulose) (HPC)
[10] = dose: 12.5 mg/kg/injection, schedule: Q01DX009 (ip), vehicle: saline with Tween-80
[11] = dose: 25.0 mg/kg/injection, schedule: Q01DX009 (ip), vehicle: saline with Tween-80
[12] = dose: 50.0 mg/kg/injection, schedule: Q01DX009 (ip), vehicle: saline with Tween-80
[13] = dose: 100.0 mg/kg/injection, schedule: Q01DX009 (ip), vehicle: saline with Tween-80
[14] = dose: 3.12 mg/kg/injection, schedule: Q01DX009 (ip), vehicle: water
[15] = dose: 6.25 mg/kg/injection, schedule: Q01DX009 (ip), vehicle: water
[16] = dose: 100.0 mg/kg/injection, schedule: Q01DX009 (ip), vehicle: saline
[17] = dose: 200.0 mg/kg/injection, schedule: Q01DX009 (ip), vehicle: saline
[18] = dose: 400.0 mg/kg/injection, schedule: Q01DX009 (ip), vehicle: saline
[19] = dose: 12.5 mg/kg/injection, schedule: Q01DX009 (ip), vehicle: suspension in saline
[20] = dose: 200.0 mg/kg/injection, schedule: Q01DX009 (ip), vehicle: saline with Tween-80
[21] = dose: 25.0 mg/kg/injection, schedule: Q01DX009 (ip), vehicle: saline

## Cc1cc(Cc2cc(C)c(C)c(C)c2C)c(C)c(C)c1C
dose: 0.78 mg/kg/injection, schedule: Q01DX009 (ip), vehicle: saline with Tween-80
  T/C: 89 % of control
[1]
  T/C: 91 % of control
[2]
  T/C: 100 % of control
[3]
  T/C: 106 % of control

## c1cc(OCC2CO2)ccc1OCC1CO1 (stereo unspecified)
[4]
  T/C: 109 % of control
[5]
  T/C: 121 % of control and 103 % of control
[6]
  T/C: 105 % of control
[7]
  T/C: 117 % of control

## C[Si](C)(C)OSc1ccccc1[N+](=O)[O-]
[4]
  T/C: 108 % of control
[5]
  T/C: 110 % of control
[6]
  T/C: 113 % of control
[8]
  T/C: 112 % of control
[7]
  T/C: 103 % of control
[9]
  T/C: 89 % of control

## O=C1N=C(Oc2ccccc2)SC1=O
[10]
  T/C: 110 % of control
[11]
  T/C: 98 % of control
[12]
  T/C: 103 % of control
[13]
  T/C: 92 % of control

## COC1C(CO)OC(n2c3c(Cl)cccc3c3c4c(c5c6cccc(Cl)c6[nH]c5c32)C(=O)NC4=O)C(O)C1O (stereo unspecified)
dose: 25.0 mg/kg/injection, schedule: Q01DX009 (ip), vehicle: distilled water + Tween-80
  T/C: 150 % of control
dose: 100.0 mg/kg/injection, schedule: Q01DX009 (ip), vehicle: distilled water + Tween-80
  T/C: 172 % of control and 173 % of control
dose: 200.0 mg/kg/injection, schedule: Q01DX009 (ip), vehicle: distilled water + Tween-80
  T/C: 161 % of control

## CCCCCCCCCCCCCCCCN(CC)CC
dose: 2.5 mg/kg/injection, schedule: Q01DX009 (ip), vehicle: saline
  T/C: 99 % of control
dose: 5.0 mg/kg/injection, schedule: Q01DX009 (ip), vehicle: saline
  T/C: 97 % of control
dose: 10.0 mg/kg/injection, schedule: Q01DX009 (ip), vehicle: saline
  T/C: 90 % of control

## COc1cccc2c1C(=O)c1c(O)c3c(c(O)c1C2=O)C[C@@](O)(/C(CO)=N/NC(=O)c1ccc(Cl)c(Cl)c1)C[C@@H]3OC1CC(N)C(O)C(C)O1 (stereo partly specified)
dose: 1.0 mg/kg/injection, schedule: Q01DX009 (ip), vehicle: saline
  T/C: 188 % of control
dose: 2.0 mg/kg/injection, schedule: Q01DX009 (ip), vehicle: saline
  T/C: 190 % of control
dose: 4.0 mg/kg/injection, schedule: Q01DX009 (ip), vehicle: saline
  T/C: 250 % of control
dose: 8.0 mg/kg/injection, schedule: Q01DX009 (ip), vehicle: saline
  T/C: 267 % of control
dose: 16.0 mg/kg/injection, schedule: Q01DX009 (ip), vehicle: saline
  T/C: 357 % of control

## Cc1ccnc(NN=O)c1
[14]
  T/C: 99 % of control
[15]
  T/C: 100 % of control

## C1CC[N-]CC1.[Cl][Pt+2][Cl].[NH-]C1CC1
[1]
  T/C: 117 % of control
[14]
  T/C: 106 % of control
[15]
  T/C: 116 % of control
[10]
  T/C: 159 % of control

## Nc1ccc(S(=O)(=O)Nc2cnc3c(Cl)cccc3n2)cc1
dose: 50.0 mg/kg/injection, schedule: Q01DX009 (ip), vehicle: DMSO
  T/C: 97 % of control
dose: 100.0 mg/kg/injection, schedule: Q01DX009 (ip), vehicle: DMSO
  T/C: 100 % of control
dose: 200.0 mg/kg/injection, schedule: Q01DX009 (ip), vehicle: DMSO
  T/C: 116 % of control
dose: 400.0 mg/kg/injection, schedule: Q01DX009 (ip), vehicle: DMSO
  T/C: 105 % of control

## CNC=O
[16]
  T/C: 101 % of control
[17]
  T/C: 108 % of control
[18]
  T/C: 95 % of control

## NC(=O)/C=C/C(N)=O
[10]
  T/C: 113 % of control
[11]
  T/C: 109 % of control
[12]
  T/C: 89 % of control

## O=C(O)Cc1cccc2c(=O)cc(-c3ccccc3)oc12
[19]
  T/C: 109 % of control and 103 % of control
dose: 25.0 mg/kg/injection, schedule: Q01DX009 (ip), vehicle: suspension in saline
  T/C: 115 % of control and 123 % of control
dose: 50.0 mg/kg/injection, schedule: Q01DX009 (ip), vehicle: suspension in saline
  T/C: 172 % of control
dose: 100.0 mg/kg/injection, schedule: Q01DX009 (ip), vehicle: suspension in saline
  T/C: 152 % of control and 163 % of control

## CSc1ncc2ncn(C3OC(CO)C(O)C3O)c2n1 (stereo unspecified)
[5]
  T/C: 101 % of control and 105 % of control
[6]
  T/C: 95 % of control and 98 % of control
[8]
  T/C: 103 % of control
[7]
  T/C: 106 % of control
[9]
  T/C: 110 % of control and 89 % of control

## Nc1ncc(S(=O)(=O)c2ccc([N+](=O)[O-])cc2)c(N)n1
dose: 75.0 mg/kg/injection, schedule: Q01DX009 (ip), vehicle: saline
  T/C: 100 % of control
dose: 150.0 mg/kg/injection, schedule: Q01DX009 (ip), vehicle: saline
  T/C: 102 % of control
dose: 300.0 mg/kg/injection, schedule: Q01DX009 (ip), vehicle: saline
  T/C: 87 % of control

## CC(/C=C/C1OC(=O)C=CC1C)=C\C(C)C/C=C/C(C)=C/C(C)C(=O)C(C)C(O)C(C)C/C(C)=C/C(=O)O (stereo unspecified)
dose: 12.5 micrograms/kg/injection, schedule: Q01DX009 (ip), vehicle: saline + alcohol
  T/C: 170 % of control and 184 % of control
dose: 25.0 micrograms/kg/injection, schedule: Q01DX009 (ip), vehicle: saline + alcohol
  T/C: 176 % of control and 224 % of control

## Nc1ncn(C2CC(O)C(CO)O2)c(=O)n1 (stereo unspecified)
dose: 0.25 mg/kg/injection, schedule: Q01DX009 (ip), vehicle: Klucel (hydroxypropylcellulose) (HPC)
  T/C: 86 % of control
dose: 0.25 mg/kg/injection, schedule: Q01DX009 (ip), vehicle: saline
  T/C: 117 % of control
dose: 15.62 micrograms/kg/injection, schedule: Q01DX009 (ip), vehicle: Klucel (hydroxypropylcellulose) (HPC)
  T/C: 87 % of control
dose: 31.25 micrograms/kg/injection, schedule: Q01DX009 (ip), vehicle: Klucel (hydroxypropylcellulose) (HPC)
  T/C: 86 % of control
dose: 125.0 micrograms/kg/injection, schedule: Q01DX009 (ip), vehicle: Klucel (hydroxypropylcellulose) (HPC)
  T/C: 114 % of control
dose: 250.0 micrograms/kg/injection, schedule: Q01DX009 (ip), vehicle: Klucel (hydroxypropylcellulose) (HPC)
  T/C: 97 % of control

## CC(C)=CCN1C(=O)c2ccccc2C1=O
[16]
  T/C: 104 % of control
[17]
  T/C: 102 % of control
[18]
  T/C: 94 % of control

## Brc1ccc(C[N+]23CN4CN(CN(C4)C2)C3)cc1
[10]
  T/C: 100 % of control
[11]
  T/C: 98 % of control
[12]
  T/C: 101 % of control
[13]
  T/C: 108 % of control
[20]
  T/C: 112 % of control

## Cn1cnc([N+](=O)[O-])c1Sc1nc(N)nc2c1ncn2C1OC(CO)C(O)C1O (stereo unspecified)
dose: 3.12 mg/kg/injection, schedule: Q01DX009 (ip), vehicle: suspension in saline
  T/C: 116 % of control
[2]
  T/C: 111 % of control
[3]
  T/C: 97 % of control
dose: 6.25 mg/kg/injection, schedule: Q01DX009 (ip), vehicle: suspension in saline
  T/C: 117 % of control
[10]
  T/C: 94 % of control
[19]
  T/C: 93 % of control

## COc1cc(C[C@@H]2COC(=O)[C@]2(O)Cc2ccc(O)c(OC)c2)ccc1O
dose: 1.0 mg/kg/injection, schedule: Q01DX009 (ip), vehicle: saline + alcohol
  T/C: 102 % of control
dose: 2.0 mg/kg/injection, schedule: Q01DX009 (ip), vehicle: saline + alcohol
  T/C: 88 % of control
dose: 4.0 mg/kg/injection, schedule: Q01DX009 (ip), vehicle: saline + alcohol
  T/C: 91 % of control
dose: 8.0 mg/kg/injection, schedule: Q01DX009 (ip), vehicle: saline + alcohol
  T/C: 101 % of control
dose: 16.0 mg/kg/injection, schedule: Q01DX009 (ip), vehicle: saline + alcohol
  T/C: 86 % of control

## O=C(C1CO1)C(Cl)(Cl)Cl (stereo unspecified)
dose: 12.0 mg/kg/injection, schedule: Q01DX009 (ip), vehicle: saline
  T/C: 92 % of control
[21]
  T/C: 106 % of control

## COc1ccc(C[C@@H]2NC[C@@H](O)[C@@H]2OC(C)=O)cc1
[11]
  T/C: 124 % of control
dose: 25.0 mg/kg/injection, schedule: Q04DX003 (ip), vehicle: saline with Tween-80
  T/C: 112 % of control
[12]
  T/C: 120 % of control
dose: 50.0 mg/kg/injection, schedule: Q04DX003 (ip), vehicle: saline with Tween-80
  T/C: 110 % of control
dose: 100.0 mg/kg/injection, schedule: Q04DX003 (ip), vehicle: saline with Tween-80
  T/C: 114 % of control
[20]
  T/C: 120 % of control and 121 % of control
dose: 200.0 mg/kg/injection, schedule: Q04DX003 (ip), vehicle: saline with Tween-80
  T/C: 112 % of control

## COC(OC(CO)C(O)S(=O)(=O)O)C(O)S(=O)(=O)O (stereo unspecified)
dose: 12.5 mg/kg/injection, schedule: Q01DX009 (ip), vehicle: saline
  T/C: 108 % of control
[21]
  T/C: 115 % of control
[16]
  T/C: 155 % of control
